# From PubChem BioAssay (NCI)
# “And” between values parts separate entries of the source, which are not always exact repeats. Equal entries are not always repeated.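 48-hour exposure; five concentrations; linearly interpolated endpoints. GI50 marks 50% less growth. TGI is the concentration that stops growth completely.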
# Assays:
# Assay in all cases: NCI-60 cell line screen, 48 h
# COLO 205 colon = system: COLO 205 colon
# HCT-15 colon = system: HCT-15 colon
# HS 578T breast = system: HS 578T breast
# HOP-62 NSCLC = system: HOP-62 NSCLC
# SW-620 colon = system: SW-620 colon
# RXF 393 renal = system: RXF 393 renal
# DU-145 prostate = system: DU-145 prostate
# SK-MEL-5 melanoma = system: SK-MEL-5 melanoma
# UACC-62 melanoma = system: UACC-62 melanoma
# M14 melanoma = system: M14 melanoma
# OVCAR-5 ovarian = system: OVCAR-5 ovarian
# OVCAR-3 ovarian = system: OVCAR-3 ovarian
# OVCAR-4 ovarian = system: OVCAR-4 ovarian
Structure (SMILES),TGI (COLO 205 colon),TGI (HCT-15 colon),TGI (HS 578T breast),TGI (HOP-62 NSCLC),TGI (SW-620 colon),TGI (RXF 393 renal),TGI (DU-145 prostate),TGI (SK-MEL-5 melanoma),TGI (UACC-62 melanoma),TGI (M14 melanoma),TGI (OVCAR-5 ovarian),TGI (OVCAR-3 ovarian),TGI (OVCAR-4 ovarian),GI50 (SK-MEL-5 melanoma),GI50 (UACC-62 melanoma),GI50 (OVCAR-3 ovarian)
O=C(NCCC1CNc2ccccc21)OCc1ccccc1 (stereo not given),> 100 µM,> 100 µM,> 100 µM,> 100 µM,> 100 µM,> 100 µM,> 100 µM,> 100 µM,> 100 µM,> 100 µM,> 100 µM,> 100 µM,> 100 µM,–,–,–
CC(C)C(Cl)CCC(C)(Cl)C(=O)CBr (stereo not given),12 µM,10.6 µM,23.1 µM,19.6 µM,5.65 µM,7.79 µM,36.7 µM,14.3 µM,10.2 µM,11.3 µM,26.7 µM,16.4 µM,12.7 µM,–,–,–
C=C1CC[C@@H](CCC2CCC3(OC2)O[C@]2(O)CC[C@@]3(C)OC2(C)C)C(C)(C)[C@H]1C/C=C1\CCOC1=O (stereo not given in full),35.3 µM,> 81.4 µM,> 80.7 µM,> 100 µM,> 100 µM,49.5 µM,> 100 µM,4.93 µM,> 100 µM,> 100 µM,> 100 µM,54.8 µM,> 100 µM,–,–,–
O=[N+]([O-])c1cccc2nc3ccccc3c(NCCCCCNc3c4ccccc4nc4cccc([N+](=O)[O-])c34)c12,0.13 µM and 0.0322 µM,0.0573 µM and 0.119 µM,0.512 µM,–,1.62 µM,0.111 µM,0.0929 µM,0.255 µM and 0.149 µM,0.303 µM and 0.307 µM,0.198 µM and 0.024 µM,0.935 µM,0.262 µM and 0.054 µM,0.738 µM,0.018 µM,0.0351 µM,0.0135 µM
O=C1CC(O)c2cscc21 (stereo not given),> 100 µM,> 100 µM,> 100 µM,> 100 µM,> 100 µM,> 100 µM,> 100 µM,> 100 µM,> 100 µM,–,> 100 µM,> 100 µM,> 100 µM,–,–,–
O=C(Nn1c(-c2ccccc2)nc2ccccc2c1=O)c1ccc(Cl)cc1,–,> 100 µM,> 100 µM,> 100 µM,> 100 µM,> 100 µM,> 100 µM,> 100 µM,> 100 µM,> 100 µM,> 100 µM,> 100 µM,> 100 µM,–,–,–
Cc1nc2sc3cccc(Cl)c3n2c(=O)c1N=Nc1ccc(Cl)cc1,> 100 µM,> 100 µM,> 100 µM,> 100 µM,> 100 µM,> 100 µM,> 100 µM,> 100 µM,–,> 100 µM,> 100 µM,> 100 µM,> 100 µM,–,–,–
